Test results taken from ChEMBL document CHEMBL3779859, “Synergistic activity of a short lipidated antimicrobial peptide (lipoAMP) and colistin or tobramycin against Pseudomonas aeruginosa from cystic fibrosis patients” (Medchemcomm, 2016).
Converted amounts (≈) assume the structure as drawn. The source made the active and inactive calls. No cut-off for these calls is given here. Peptide text beside a SMILES is read from it. * marks the point of attachment. Decanoyl = CCCCCCCCCC(=O)*

Tests used:
[1] = test system: Pseudomonas aeruginosa; experiment: Antibacterial activity against Pseudomonas aeruginosa VW1633 clinical isolate after 16 to 20 hrs by microdilution assay; assay type: functional
[2] = test system: Pseudomonas aeruginosa; experiment: Antibacterial activity against Pseudomonas aeruginosa kl 3.2 clinical isolate after 16 to 20 hrs by microdilution assay; assay type: functional
[3] = test system: Pseudomonas aeruginosa; experiment: Antibacterial activity against Pseudomonas aeruginosa KD491 clinical isolate assessed as growth inhibition at 8 ug/ml measured every 15 mins by microtiter plate reader method in presence of 1 ug/ml tobramycin; assay type: functional, organism-based
[4] = test system: Pseudomonas aeruginosa; experiment: Antibacterial activity against Pseudomonas aeruginosa Clone C clinical isolate assessed as inhibition of biofilm formation at 32 ug/ml after 18 to 22 hrs by crystal violet staining-based polystyrene microtiter plate reader method in absence of colistin; assay type: functional, organism-based
[5] = test system: Pseudomonas aeruginosa; experiment: Antibacterial activity against Pseudomonas aeruginosa Clone C clinical isolate after 18 to 22 hrs by checkerboard method in presence of tobramycin; assay type: functional
[6] = test system: Pseudomonas aeruginosa; experiment: Antibacterial activity against Pseudomonas aeruginosa LESB58 clinical isolate assessed as growth inhibition at 32 ug/ml measured every 15 mins by microtiter plate reader method in presence of 1 ug/ml tobramycin; assay type: functional, organism-based
[7] = test system: Pseudomonas aeruginosa; experiment: Antibacterial activity against Pseudomonas aeruginosa LESB58 clinical isolate after 18 to 22 hrs by checkerboard method in presence of colistin; assay type: functional
[8] = test system: Pseudomonas aeruginosa; experiment: Antibacterial activity against Pseudomonas aeruginosa LES400 clinical isolate after 16 to 20 hrs by microdilution assay; assay type: functional
[9] = test system: Pseudomonas aeruginosa; experiment: Antibacterial activity against Pseudomonas aeruginosa KD491 clinical isolate after 18 to 22 hrs by checkerboard method in presence of colistin; assay type: functional
[10] = test system: Pseudomonas aeruginosa; experiment: Antibacterial activity against Pseudomonas aeruginosa KD491 clinical isolate assessed as inhibition of biofilm formation at 4 ug/ml after 18 to 22 hrs by crystal violet staining-based polystyrene microtiter plate reader method; assay type: functional
[11] = test system: Pseudomonas aeruginosa; experiment: Antibacterial activity against Pseudomonas aeruginosa KD491 clinical isolate after 16 to 20 hrs by microdilution assay; assay type: functional
[12] = test system: Pseudomonas aeruginosa; experiment: Antibacterial activity against Pseudomonas aeruginosa KD491 clinical isolate assessed as delay in growth at 4 to 8 ug/ml measured every 15 mins by microtiter plate reader method; assay type: functional, organism-based
[13] = test system: Pseudomonas aeruginosa; experiment: Antibacterial activity against Pseudomonas aeruginosa Clone C clinical isolate assessed as inhibition of biofilm formation at 8 ug/ml after 24 hrs by propidium iodide staining-based confocal laser microscopy; assay type: functional, organism-based
[14] = Hemolytic activity in erythrocytes (unknown origin) at 32 ug/ml; assay type: ADME, cell-based, Erythrocyte; settings: read-out: Activity
[15] = test system: Pseudomonas aeruginosa; experiment: Antibacterial activity against Pseudomonas aeruginosa Clone C clinical isolate after 18 to 22 hrs by checkerboard method in presence of colistin; assay type: functional
[16] = test system: Pseudomonas aeruginosa; experiment: Antibacterial activity against Pseudomonas aeruginosa KD491 clinical isolate assessed as inhibition of biofilm formation at 32 ug/ml after 18 to 22 hrs by crystal violet staining-based polystyrene microtiter plate reader method; assay type: functional
[17] = test system: Pseudomonas aeruginosa; experiment: Antibacterial activity against Pseudomonas aeruginosa Clone C clinical isolate assessed as inhibition of biofilm formation at 128 ug/ml after 18 to 22 hrs by crystal violet staining-based polystyrene microtiter plate reader method; assay type: functional
[18] = test system: Pseudomonas aeruginosa; experiment: Antibacterial activity against Pseudomonas aeruginosa VW1538 clinical isolate after 16 to 20 hrs by microdilution assay; assay type: functional
[19] = test system: Pseudomonas aeruginosa; experiment: Antibacterial activity against Pseudomonas aeruginosa PAO1 clinical isolate assessed as inhibition of biofilm formation at 32 ug/ml after 18 to 22 hrs by crystal violet staining-based polystyrene microtiter plate reader method in presence of 2 ug/ml tobramycin; assay type: functional, organism-based
[20] = test system: Pseudomonas aeruginosa; experiment: Antibacterial activity against Pseudomonas aeruginosa KD491 clinical isolate assessed as inhibition of biofilm formation at 2 ug/ml after 18 to 22 hrs by crystal violet staining-based polystyrene microtiter plate reader method; assay type: functional
[21] = test system: Pseudomonas aeruginosa; experiment: Antibacterial activity against Pseudomonas aeruginosa LESB58 clinical isolate after 18 to 22 hrs by checkerboard method in presence of tobramycin; assay type: functional
[22] = test system: Pseudomonas aeruginosa; experiment: Antibacterial activity against Pseudomonas aeruginosa Clone C clinical isolate assessed as inhibition of biofilm formation at 32 ug/ml after 18 to 22 hrs by crystal violet staining-based polystyrene microtiter plate reader method in presence of 2 ug/ml colistin; assay type: functional

For CCCCCCCCCC(=O)NCCCC[C@H](NC(=O)[C@H](Cc1c[nH]c2ccccc12)NC(=O)[C@H](CCCNC(=N)N)NC(=O)[C@H](Cc1c[nH]c2ccccc12)NC(=O)[C@H](CCCNC(=N)N)NC(=O)[C@H](Cc1c[nH]c2ccccc12)NC(=O)[C@@H](N)CCCNC(=N)N)C(=O)O (H-RWRWRWK(Decanoyl)-OH), the MIC [1] was 16 µg/mL (≈ 12.1 µM), the MIC [2] was 128 µg/mL (≈ 96.4 µM) and the “growth inhibition (GI)” value [3] was “Active”. The inhibition [4] was “inactive”, the “fractional inhibitory concentration index (FICI)” value [5] was 0.5 and the “growth inhibition (GI)” value [6] was “Active”. For the same compound, the “fractional inhibitory concentration index (FICI)” value [7] was 0.375, the MIC [8] was 64 µg/mL (≈ 48.2 µM) and the “fractional inhibitory concentration index (FICI)” value [9] was 0.2625. The inhibition at 4 µg/mL [10] was 52%, the MIC [11] was 16 µg/mL (≈ 12.1 µM) and the Activity [12] was “Active”. The inhibition [13] was “inactive”, the hemolysis at 32 ug/ml [14] was under 10% and the “fractional inhibitory concentration index (FICI)” value [15] was 0.5. For the same compound, the inhibition at 32 µg/mL [16] was 80%, the inhibition at 128 µg/mL [17] was 82% and the MIC [18] was 64 µg/mL (≈ 48.2 µM). For the same compound, the inhibition [19] was “inactive”, the inhibition at 2 µg/mL [20] was 45% and the “fractional inhibitory concentration index (FICI)” value [21] was 0.5. For the same compound, the “inhibition (INH)” value [22] was 70%.
